One data set deals with mice. Conditions: for MTD (nmol injected): mice of average body weight 25 g; for dose producing acute toxicity (convulsions and death) / dose producing acute toxicity (convulsions and death), nmol: single IV injection.
In data set [1] the test system is different cancer cell lines. The note with it: cited from earlier work.

Read-outs that look alike come from different tables or passages of the source. *1 amine or outer side, *2 acyl side, *3 side chain or, on linkers, in order; H or OH if unused. Where a SMILES comes first, the peptide text is derived from it. [ ]: non-standard residue; d: D form. The star is where a group is joined. Emetine(N2') = CC[C@H]1CN2CCc3cc(OC)c(OC)cc3[C@@H]2C[C@@H]1C[C@@H]1c2cc(OC)c(OC)cc2CCN1*; PABC = O=C(OCc1ccc(N[*:1])cc1)[*:2]

Turning to `CC[C@H]1CN2CCc3cc(OC)c(OC)cc3[C@@H]2C[C@@H]1C[C@@H]1c2cc(OC)c(OC)cc2CCN1C(=S)[S-].[Na+]` [compound 18], the “Effects/observations at higher doses” value in the data set with mice (IV injection, mice) is given as “No remarkable behavior even at higher doses. Mice remained alive”. Further, the “MTD (nmol injected)” value with mice (IV injection) was over 4320 nmol. Further, the “in vitro cytotoxicity compared to emetine” value in data set [1] (cancer cell lines, ref [6]–[9]) is recorded as “much less toxic in vitro compared to emetine”.

Turning to `CC[C@H]1CN2CCc3cc(OC)c(OC)cc3[C@@H]2C[C@@H]1C[C@@H]1c2cc(OC)c(OC)cc2CCN1C(=O)/C=C(/C)C(=O)O` [compound 19], in the data set with mice (IV injection, mice), the “Effects/observations at higher doses” value was “No remarkable behavior even at higher doses. Mice remained alive”. In addition, in the data set with mice (IV injection), the “MTD (nmol injected)” value was over 4218 nmol. In addition, the “in vitro cytotoxicity compared to emetine” value in data set [1] is listed as “much less toxic in vitro compared to emetine”.

Consider `CC[C@H]1CN2CCc3cc(OC)c(OC)cc3[C@@H]2C[C@@H]1C[C@@H]1c2cc(OC)c(OC)cc2CCN1C(=O)/C=C(/CC(=O)O)C(=O)O` [compound 20], for which the “Effects/observations at higher doses” value in the data set with mice (IV injection, mice) is “No remarkable behavior even at higher doses. Mice remained alive”. The “MTD (nmol injected)” value in the data set on mice (IV injection) is over 3926 nmol. For the same molecule, the “in vitro cytotoxicity compared to emetine” value in data set [1] was “much less toxic in vitro compared to emetine”.

For the molecule `CC[C@H]1CN2CCc3cc(OC)c(OC)cc3[C@@H]2C[C@@H]1C[C@@H]1c2cc(OC)c(OC)cc2CCN1C(=O)CCC(=O)O` [compound 22], in the data set on mice (IV injection, mice), the “Effects/observations at higher doses” value is listed as “No remarkable behavior. Mice remained alive”. Further, in the data set with mice (IV injection), the “MTD (nmol injected)” value was over 4305 nmol. For the same molecule, the “in vitro cytotoxicity compared to emetine” value in data set [1] is recorded as “much less toxic in vitro compared to emetine”.

For the molecule `CC[C@H]1CN2CCc3cc(OC)c(OC)cc3[C@@H]2C[C@@H]1C[C@@H]1c2cc(OC)c(OC)cc2CCN1C(=O)[C@@H]1CCCN1C(=O)[C@H](C)N` [compound 23], the “Effects/observations at higher doses” value with mice (IV injection, mice) was “Convulsion and death within 1 min of injection at 16 mg/kg (617 nmol)”. Also, in the data set on mice (mice), the “dose producing acute toxicity (convulsions and death)” value is given as 16 mg/kg; the “dose producing acute toxicity (convulsions and death), nmol” value is 617 nmol. The “in vitro cytotoxicity compared to 10” value in data set [1] (in vitro cytotoxicity assays, ref [9]) is “significantly less active”.

In the case of `CC[C@H]1CN2CCc3cc(OC)c(OC)cc3[C@@H]2C[C@@H]1C[C@@H]1c2cc(OC)c(OC)cc2CCN1C(=O)OCc1ccc(NC(=O)[C@@H]2CCCN2C(=O)[C@H](C)NC(=O)[C@@H]2CCCN2C(=O)[C@H](C)NC(C)=O)cc1` [compound 24] (Ac-APAP[PABC]-{Emetine(N2')}), in the data set with mice (IV injection, mice), the “Effects/observations at higher doses” value was “Intermittent convulsion started 1 min post injection of 33 mg/kg dose (818 nmol). Death occurred after about 8 min”. Besides, in the data set on mice (mice), the “dose producing acute toxicity (convulsions and death)” value stood at 33 mg/kg; the “dose producing acute toxicity (convulsions and death), nmol” value was 818 nmol.

Regarding `CC[C@H]1CN2CCc3cc(OC)c(OC)cc3[C@@H]2C[C@@H]1C[C@@H]1c2cc(OC)c(OC)cc2CCN1C(=O)OCc1ccc([N+](=O)[O-])cc1` [compound 25], in the data set on mice (IV injection, mice), the “Effects/observations at higher doses” value is “No remarkable behavior, no sign of toxicity. Mice remained alive”; the “dose without any observable sign of toxicity” value came to 64 mg/kg; the “dose without any observable sign of toxicity, nmol” value is 2425 nmol. Besides, in the data set with mice (IV injection), the “MTD (nmol injected)” value is recorded as over 2425 nmol. The “fold less cytotoxic than emetine in vitro” value in data set [1] (different cancer cell lines, ref [6]–[9]) was “about 200 fold”.

For `CC[C@H]1CN2CCc3cc(OC)c(OC)cc3[C@@H]2C[C@@H]1C[C@@H]1c2cc(OC)c(OC)cc2CCN1C(=S)Nc1ccccc1` [compound 26], the “dose without any observable sign of toxicity” value in the data set on mice (male, Balb/c, mouse, in vivo, iv) is reported as “up to 100 mg/kg”. Further, the “in vitro cytotoxicity compared to emetine” value in data set [1] (cancer cell lines, ref [6]–[9]) is reported as “less cytotoxic in vitro than emetine”.

(Values after article PMC6003237 (Bioorganic & medicinal chemistry, 2017).)
